Starred links: 1 amine or outer side, 2 acyl side, 3 side chain; linkers in the order of their positions; H or OH if unused. Non-standard residues stand in square brackets, D forms with d. Residues, ends and D or L forms follow the SMILES beside them. Groups on a side chain read outwards from the residue. *: point of attachment. Dip = N[C@H](C(=O)O)C(c1ccccc1)c1ccccc1; γGlu = O=C(O)[C@H](CCC(=O)[*:2])N[*:1]; Stearoyl = CCCCCCCCCCCCCCCCCC(=O)*; αMeF = C[C@](N)(Cc1ccccc1)C(=O)O; Cha = N[C@@H](CC1CCCCC1)C(=O)O; PEG2 = NCCOCCOCCC(=O)O; Aib = CC(C)(N)C(=O)O
Columns and labels:
[1] = molecular target: human GLP-1 receptor (hGLP-1R) (Homo sapiens, UniProt P43220); test: cAMP production (HTRF) in CHO cells expressing hGLP-1R; type: cell-based; design: expressed in transfected cells; conditions: for EC50: Table 6, peptides modified at position 17, cAMP in CHO hGLP-1R cells, geometric mean, read-out: hGLP-1R EC50; for % Relative Potency Ratio: Table 6, % GLP-1R activity relative to GLP-1 / % GlucR activity relative to glucagon
Sequence of human GLP-1 receptor (hGLP-1R) (P43220 24-463): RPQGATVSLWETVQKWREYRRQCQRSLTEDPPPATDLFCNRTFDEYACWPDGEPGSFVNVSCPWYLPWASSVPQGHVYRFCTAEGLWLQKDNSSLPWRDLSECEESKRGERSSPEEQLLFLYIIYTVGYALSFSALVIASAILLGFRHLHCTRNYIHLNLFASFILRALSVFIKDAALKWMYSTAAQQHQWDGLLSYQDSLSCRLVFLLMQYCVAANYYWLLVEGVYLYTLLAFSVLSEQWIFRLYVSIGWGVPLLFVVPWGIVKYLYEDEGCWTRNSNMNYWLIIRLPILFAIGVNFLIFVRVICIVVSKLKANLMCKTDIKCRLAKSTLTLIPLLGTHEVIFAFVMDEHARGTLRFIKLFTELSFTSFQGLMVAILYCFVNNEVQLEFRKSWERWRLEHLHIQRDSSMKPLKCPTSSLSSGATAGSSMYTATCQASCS
In short: (§1)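 Cells were resuspended in assay buffer at batch-optimized density, typically 1×10^5 cells/mL for hGLP-1R and 2×10^5 cells/mL for hGCGR. After 30 min incubation at room temperature with compound, cAMP was measured by two-step HTRF. EC50 values came from 4-parameter logistic fits of % Delta F.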

[2] = Proteolytic resistance to FasSSIF/Pancreatin; type: in vitro ADME; conditions: simulated intestinal fluid
Description: A fresh suspension of FasSSIF/P (Fasted-State Simulated Intestinal Fluid+USP Pancreatin®) was prepared according to that described by Galia, Nicolaides, Hörter, Löbenberg, Reppas and Dressman: Pharm. Res. 15 (1998) 698-705, and USP XL requirements. The resulting preparation was used immediately without storage.
Peptide for evaluation (1.0 mg) was dissolved in pre-warmed FasSSIF without Pancreatin® (200 μL). To this fresh FasSSIF/Pancreatin® (100 μL) was added to initiate potential proteolysis. Following momentary vortexing of the reaction tube the mixture was incubated at 37° C. in a thermostatic water bath for the duration of the experiment. 25 μL aliquot of the co-incubated peptide-enzyme mixture was periodically withdrawn (t=0, 5, 10 15 and 30 min) and quenched immediately by addition to a solution of 10% TFA in 1:1 water/acetonitrile (75 μL) to arrest proteolytic activity. Quenched samples were centrifuged (7800 RPM, 3 mins) to pellet solids and 10 μL aliquots of the supernatant solution were analyzed using analytical RP-HPLC as follows: Analytical RP-HPLC method: Agilent Polaris C8-A column (4.6×100 mm, 3 micron) eluted with a linear binary gradient of 10-90% MeCN (0.1% TFA v/v) in water (0.1% TFA v/v) over either 10 or 15 mins at 1.5 mL min^−1 at 40° C. with detection by UV absorption at 210 nm. Manual integration (AUC) allowed estimation of remaining intact peptide over the time course of the experiment.

[3] = Mouse acute food intake study; type: in vivo; conditions: male C57Bl/6 mice, s.c., dose 10 nmol/kg, cumulative food intake at 24 hr vs vehicle
In short: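 Peptide or vehicle went subcutaneously (5 mL/kg) to 6-8 h-fasted male C57Bl/6 mice shortly before the dark phase, with groups balanced on body weight and 24-hour intake. Cumulative food consumption was derived from 48 h of automated BioDaq monitoring with free food and water access.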

[4] = molecular target: human glucagon receptor (hGCGR) (Homo sapiens, UniProt P47871); test: cAMP production (HTRF) in CHO cells expressing hGCGR; type: cell-based; design: expressed in transfected cells; conditions: Table 6, peptides modified at position 17; cAMP in CHO hGCGR cells; geometric mean; read-out: hGluc-R EC50
Sequence of human glucagon receptor (hGCGR) (P47871 26-477): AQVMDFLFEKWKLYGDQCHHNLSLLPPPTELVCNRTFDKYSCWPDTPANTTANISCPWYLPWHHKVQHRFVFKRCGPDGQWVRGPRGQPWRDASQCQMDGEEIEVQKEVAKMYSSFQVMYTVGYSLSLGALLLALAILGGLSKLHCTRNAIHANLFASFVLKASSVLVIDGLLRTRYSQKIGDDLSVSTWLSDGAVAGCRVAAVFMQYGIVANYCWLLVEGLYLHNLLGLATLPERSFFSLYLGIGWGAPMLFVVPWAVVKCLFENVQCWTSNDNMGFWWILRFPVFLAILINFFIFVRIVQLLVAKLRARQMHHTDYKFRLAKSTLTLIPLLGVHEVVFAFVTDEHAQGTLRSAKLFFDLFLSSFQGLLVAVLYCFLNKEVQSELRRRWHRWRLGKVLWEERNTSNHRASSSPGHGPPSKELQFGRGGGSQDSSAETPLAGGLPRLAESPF
In short: as §1

Structure (SMILES)	EC50 [1] [pM]	% Relative Potency Ratio [1]	remaining at 5 min, 3.3 mg/mL [2] [%]	remaining at 10 min, 3.3 mg/mL [2] [%]	remaining at 0.25 h, 3.3 mg/mL [2] [%]	remaining at 0.5 h, 3.3 mg/mL [2] [%]	24 hr % Vehicle Food Intake [3] [%]	EC50 [4] [pM]
CCCCCCCCCCCCCCCCCC(=O)N[C@@H](CCC(=O)N[C@@H](CCC(=O)NCCOCCOCCC(=O)NCCOCCOCCC(=O)NCCCC[C@H](NC(=O)[C@H](CO)NC(=O)[C@H](CC(=O)O)NC(=O)[C@H](CC(C)C)NC(=O)[C@@H](NC(=O)[C@H](CCCCN)NC(=O)[C@H](CO)NC(=O)[C@@H](NC(=O)[C@H](CC(=O)O)NC(=O)[C@H](CO)NC(=O)[C@@H](NC(=O)[C@](C)(Cc1ccccc1)NC(=O)[C@H](CO)NC(=O)CNC(=O)[C@H](CCC(N)=O)NC(=O)[C@H](CO)NC(=O)[C@@H](N)Cc1c[nH]cn1)[C@@H](C)O)C(C)C)C(c1ccccc1)c1ccccc1)C(=O)N[C@@H](C)C(=O)N[C@@H](C)C(=O)N[C@@H](CCC(N)=O)C(=O)N[C@@H](CC(=O)O)C(=O)N[C@@](C)(Cc1ccccc1)C(=O)N[C@H](C(=O)N[C@@H](CCC(=O)O)C(=O)NC(C)(C)C(=O)N[C@@H](CC(C)C)C(=O)N[C@@H](C)C(=O)N[C@@H](CC(N)=O)C(=O)N[C@H](C(N)=O)[C@@H](C)O)C(C)C)C(=O)O)C(=O)O [Peptide 47] (H-HSQGS[αMeF]TSDVSK[Dip]LDSK([PEG2-PEG2-γGlu-γGlu-Stearoyl])AAQD[αMeF]VE[Aib]LANT-NH2; N-terminus assumed)	1.72	2.7	90	88	83	75	51.4	2.38
CCCCCCCCCCCCCCCCCC(=O)N[C@@H](CCC(=O)N[C@@H](CCC(=O)NCCOCCOCCC(=O)NCCOCCOCCC(=O)NCCCC[C@H](NC(=O)[C@H](CO)NC(=O)[C@H](CC(=O)O)NC(=O)[C@H](CC(C)C)NC(=O)[C@@H](NC(=O)[C@H](CCCCN)NC(=O)[C@H](CO)NC(=O)[C@@H](NC(=O)[C@H](CC(=O)O)NC(=O)[C@H](CO)NC(=O)[C@@H](NC(=O)[C@](C)(Cc1ccccc1)NC(=O)[C@H](CO)NC(=O)CNC(=O)[C@H](CCC(N)=O)NC(=O)[C@H](CO)NC(=O)[C@@H](N)Cc1c[nH]cn1)[C@@H](C)O)C(C)C)C(c1ccccc1)c1ccccc1)C(=O)N[C@@H](C)C(=O)N[C@@H](C)C(=O)N[C@@H](CCC(N)=O)C(=O)N[C@@H](CC(=O)O)C(=O)N[C@@](C)(Cc1ccccc1)C(=O)N[C@H](C(=O)N[C@@H](CCC(=O)O)C(=O)NC(C)(C)C(=O)N[C@H](C(=O)N[C@H](C(=O)N[C@@H](CC(N)=O)C(=O)N[C@H](C(N)=O)[C@@H](C)O)[C@@H](C)CC)[C@@H](C)CC)C(C)C)C(=O)O)C(=O)O [Peptide 50] (H-HSQGS[αMeF]TSDVSK[Dip]LDSK([PEG2-PEG2-γGlu-γGlu-Stearoyl])AAQD[αMeF]VE[Aib]IINT-NH2)	4.9	3.5				98	78.5	8.74
CCCCCCCCCCCCCCCCCC(=O)N[C@@H](CCC(=O)N[C@@H](CCC(=O)NCCOCCOCCC(=O)NCCOCCOCCC(=O)NCCCC[C@H](NC(=O)[C@H](CO)NC(=O)[C@H](CC(=O)O)NC(=O)[C@H](CC(C)C)NC(=O)[C@@H](NC(=O)[C@H](CCCCN)NC(=O)[C@H](CO)NC(=O)[C@@H](NC(=O)[C@H](CC(=O)O)NC(=O)[C@H](CO)NC(=O)[C@@H](NC(=O)[C@](C)(Cc1ccccc1)NC(=O)[C@H](CO)NC(=O)CNC(=O)[C@H](CCC(N)=O)NC(=O)[C@H](CO)NC(=O)[C@@H](N)Cc1c[nH]cn1)[C@@H](C)O)C(C)C)C(c1ccccc1)c1ccccc1)C(=O)N[C@@H](C)C(=O)N[C@@H](C)C(=O)N[C@@H](CCC(N)=O)C(=O)N[C@@H](CC(=O)O)C(=O)N[C@@](C)(Cc1ccccc1)C(=O)N[C@H](C(=O)N[C@@H](CCC(=O)O)C(=O)NC(C)(C)C(=O)N[C@@H](CC1CCCCC1)C(=O)N[C@@H](C)C(=O)N[C@@H](CC(N)=O)C(=O)N[C@H](C(N)=O)[C@@H](C)O)C(C)C)C(=O)O)C(=O)O [Peptide 52] (H-HSQGS[αMeF]TSDVSK[Dip]LDSK([PEG2-PEG2-γGlu-γGlu-Stearoyl])AAQD[αMeF]VE[Aib][Cha]ANT-NH2; N-terminus assumed)	22.7	0.6				90		6.65
CCCCCCCCCCCCCCCCCC(=O)N[C@@H](CCC(=O)N[C@@H](CCC(=O)NCCOCCOCCC(=O)NCCOCCOCCC(=O)NCCCC[C@H](NC(=O)[C@H](CO)NC(=O)[C@H](CC(=O)O)NC(=O)[C@H](CC(C)C)NC(=O)[C@@H](NC(=O)[C@H](CCCCN)NC(=O)[C@H](CO)NC(=O)[C@@H](NC(=O)[C@H](CC(=O)O)NC(=O)[C@H](CO)NC(=O)[C@@H](NC(=O)[C@](C)(Cc1ccccc1)NC(=O)[C@H](CO)NC(=O)CNC(=O)[C@H](CCC(N)=O)NC(=O)[C@H](CO)NC(=O)[C@@H](N)Cc1c[nH]cn1)[C@@H](C)O)C(C)C)C(c1ccccc1)c1ccccc1)C(=O)N[C@@H](C)C(=O)N[C@@H](C)C(=O)N[C@@H](CCC(N)=O)C(=O)N[C@@H](CC(=O)O)C(=O)N[C@@](C)(Cc1ccccc1)C(=O)N[C@H](C(=O)N[C@@H](CCC(=O)O)C(=O)NC(C)(C)C(=O)N[C@H](C(=O)N[C@H](C(=O)N[C@@H](CCC(=O)O)C(=O)NCC(=O)NCC(N)=O)C(C)C)C(C)C)C(C)C)C(=O)O)C(=O)O [Peptide 53] (H-HSQGS[αMeF]TSDVSK[Dip]LDSK([PEG2-PEG2-γGlu-γGlu-Stearoyl])AAQD[αMeF]VE[Aib]VVEGG-NH2)	3.03	12.3				92		18.9
CCCCCCCCCCCCCCCCCC(=O)N[C@@H](CCC(=O)N[C@@H](CCC(=O)NCCOCCOCCC(=O)NCCOCCOCCC(=O)NCCCC[C@H](NC(=O)[C@H](CO)NC(=O)[C@H](CC(=O)O)NC(=O)[C@H](CC(C)C)NC(=O)[C@@H](NC(=O)[C@H](CCCCN)NC(=O)[C@H](CO)NC(=O)[C@@H](NC(=O)[C@H](CC(=O)O)NC(=O)[C@H](CO)NC(=O)[C@@H](NC(=O)[C@](C)(Cc1ccccc1)NC(=O)[C@H](CO)NC(=O)CNC(=O)[C@H](CCC(N)=O)NC(=O)[C@H](CO)NC(=O)[C@@H](N)Cc1c[nH]cn1)[C@@H](C)O)C(C)C)[C@@H](C)CC)C(=O)N[C@@H](C)C(=O)N[C@@H](C)C(=O)N[C@@H](CCC(N)=O)C(=O)N[C@@H](CC(=O)O)C(=O)N[C@@](C)(Cc1ccccc1)C(=O)N[C@H](C(=O)N[C@@H](CCC(N)=O)C(=O)NC(C)(C)C(=O)N[C@H](C(=O)N[C@H](C(=O)N[C@@H](CC(N)=O)C(=O)N[C@H](C(N)=O)[C@@H](C)O)[C@@H](C)CC)[C@@H](C)CC)C(C)C)C(=O)O)C(=O)O [Peptide 117] (H-HSQGS[αMeF]TSDVSKILDSK([PEG2-PEG2-γGlu-γGlu-Stearoyl])AAQD[αMeF]VQ[Aib]IINT-NH2; N-terminus assumed)	1.4	2.6	54	35	22	8		1.85

From patent US20250353891A1 (MEDIMMUNE LIMITED, priority 2022, published 2025)
